Reference: patent publication US20120202806A1, “Novel Pyrimidine- And Triazine-Hepcidine Antagonists” (VIFOR (INTERNATIONAL) AG, priority 2009, published 2012)

Molecular target: T1, human ferroportin (Fpn) (Homo sapiens, UniProt Q9NP59)
T1 construct: expressed in transfected cells
T1 sequence (Q9NP59 1-571): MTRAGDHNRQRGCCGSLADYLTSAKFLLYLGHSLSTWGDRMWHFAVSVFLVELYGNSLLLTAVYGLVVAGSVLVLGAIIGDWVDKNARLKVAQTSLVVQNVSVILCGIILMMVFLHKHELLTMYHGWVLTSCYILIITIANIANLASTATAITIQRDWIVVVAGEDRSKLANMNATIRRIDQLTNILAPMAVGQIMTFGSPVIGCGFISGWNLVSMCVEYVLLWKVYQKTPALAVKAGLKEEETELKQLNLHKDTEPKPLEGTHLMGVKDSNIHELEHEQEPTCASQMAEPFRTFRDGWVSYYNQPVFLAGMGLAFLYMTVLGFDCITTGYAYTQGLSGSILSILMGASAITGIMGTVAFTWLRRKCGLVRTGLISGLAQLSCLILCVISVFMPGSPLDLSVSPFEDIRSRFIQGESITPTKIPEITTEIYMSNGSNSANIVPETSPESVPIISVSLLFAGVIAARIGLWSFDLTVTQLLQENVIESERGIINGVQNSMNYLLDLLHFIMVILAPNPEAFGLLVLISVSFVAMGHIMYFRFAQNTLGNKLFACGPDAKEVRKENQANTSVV
Assay: Ferroportin internalisation assay (inhibition of hepcidin-induced internalisation of Fpn in MDCK-FPN-HaloTag cells)
Format: cell-based
Conditions: 100 nM hepcidin; for inhibition at 10 µM: 10 μM substance, inhibition of Fpn internalisation, read-out: I [%] (Median Inhibition [%] at 10 μM substance conc.); for IC50: overnight incubation, 11 concentrations 0.04 to 40 μM
Method: The antagonistic effect against hepcidin of the pyrimidine and triazine compounds of the present invention was determined by means of the ferroportin internalisation assay described below.
Low molecular weight organic compounds which counteract the biological effects of hepcidin on its receptor, the iron exporter ferroportin (Fpn) were identified on the basis of their ability to inhibit hepcidin-induced internalisation of Fpn in living cells. A stable cell line (Madin-Darby Canine Kidney, MDCK) was produced for this purpose to express constitutively human ferroportin which is fused recombinantly with a fluorescent reporter protein (HaloTag®, Promega Corp.) at its C terminus. The internalisation of Fpn was monitored by marking these cells with fluorescent ligands (HaloTag® TMR, tetramethylrhodamine) which attach themselves covalently to the HaloTag reporter gene fused with the Fpn. […] Optimised image analysis algorithms were used to detect the cell surface and to quantify the corresponding membrane fluorescence associated with the Fpn-HaloTag fusion protein.

SMILES | inhibition at 10 µM [%] | IC50 [µM]
COc1cnc(-c2ccccn2)nc1NC(C)C [Example 1, Isopropyl-(5-methoxy-2-pyridin-2-yl-pyrimidin-4-yl)-amine] | > 50 | 
Cc1nc(-c2ccccn2)nc(NCCNc2cc(C(F)(F)F)ccn2)c1Cl [Example 2, N-(5-Chloro-6-methyl-2-pyridin-2-yl-pyrimidin-4-yl)-N′-(4-trifluoromethyl-pyridin-2-yl)-ethane-1,2-diamine] | < 50 | 
Nc1nc(-c2ccccn2)nc(N)c1Cc1ccccc1F [Example 3, 5-(2-Fluoro-benzyl)-2-pyridin-2-yl-pyrimidine-4,6-diamine] | < 50 | 
Cc1nc(-c2ccccn2)nc(NCCNc2ccc(C(F)(F)F)cn2)c1Cl [Example 4, N-(5-Chloro-6-methyl-2-pyridin-2-yl-pyrimidin-4-yl)-N′-(5-trifluoromethyl-pyridin-2-yl)-ethane-1,2-diamine] | < 50 | 
COc1cnc(-c2ccccn2)nc1N(C)Cc1ccccc1 [Example 24, Benzyl-(5-methoxy-2-pyridin-2-yl-pyrimidin-4-yl)-methyl-amine] |  | > 50
COc1cnc(CN)nc1NC(C)C [Example 50, (2-Aminomethyl-5-methoxy-pyrimidin-4-yl)-isopropyl-amine] |  | < 50

Second part, the compound after the results:

inhibition at 10 µM [%] | IC50 [µM] | SMILES
> 50 |  | Oc1cccc(/C=N/Nc2cc(N3CCOCC3)nc(N3CCOCC3)n2)c1 [Example 5, 3-[(2,6-Dimorpholin-4-yl-pyrimidin-4-yl)-hydrazonomethyl]-phenol]
> 50 |  | Cc1nc(N/N=C/c2ccc(O)cc2O)cc(N2CCOCC2)n1 [Example 6, 4-[(2-Methyl-6-morpholin-4-yl-pyrimidin-4-yl)-hydrazonomethyl]-benzene-1,3-diol]
> 50 |  | Oc1ccccc1/C=N/Nc1cc(N2CCOCC2)nc(N2CCOCC2)n1 [Example 7, 2-[(2,6-Dimorpholin-4-yl-pyrimidin-4-yl)-hydrazonomethyl]-phenol]
< 50 |  | C/C(=N\Nc1cc(N2CCOCC2)nc(C)n1)c1ccc(F)cc1 [Example 8, N-[1-(4-Fluoro-phenyl)-ethylidene]-N′-(2-methyl-6-morpholin-4-yl-pyrimidin-4-yl)-hydrazine]
> 50 |  | COc1ccc(O)c(/C=N/Nc2nc(N3CCOCC3)nc(N3CCOCC3)n2)c1 [Example 9, 2-[(4,6-Dimorpholin-4-yl-[1,3,5]triazin-2-yl)-hydrazonomethyl]-4-methoxy-phenol]
> 50 |  | c1ccc(N(c2ccccc2)c2nc(N3CCOCC3)nc(-n3ccnc3)n2)cc1 [Example 10, (4-Imidazol-1-yl-6-morpholin-4-yl-[1,3,5]triazin-2-yl)-diphenyl-amine]
< 50 |  | CN(c1ccccc1)c1nc(N2CCOCC2)nc(-n2ccnc2)n1 [Example 11, (4-Imidazol-1-yl-6-morpholin-4-yl-[1,3,5]triazin-2-yl)-methyl-phenyl-amine]
< 50 |  | Cc1ccc2cc(Nc3nc(N4CCOCC4)nc(N4CCOCC4)n3)ccc2n1 [Example 12, (4,6-Dimorpholin-4-yl-[1,3,5]triazin-2-yl)-(2-methyl-quinolin-6-yl)-amine]
